Source: patent US5409933A, “Quinoline derivatives and processes for preparing the same” (priority 1993, dated 1995)
Where a name gives a salt, the structure may show the parent alone. Read-outs that look alike come from different tables or passages of the source.

What was measured:
Test in all cases: In Vitro Anti-Bacterial Activity Test (MIC, agar dilution)
Assay type in all cases: cell-based
Escherichia coli 078 = tested on: Escherichia coli 078
Procedure, shortened: (§1)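 Agar dilution on Muller-Hinton agar; strains inoculated at 10^7 C.F.U./ml, incubated at 37° C. for 18 hours, then scored for visible growth. MIC taken as the lowest concentration preventing growth; ciprofloxacin served as control agent.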

Salmonella typhimurium = details: Salmonella enterica; Salmonella typhimurium; Muller-Hinton agar, 37° C., 18 hours; read-out: MIC
Procedure, shortened: as §1

[1] = tested on: Pseudomonas aeruginosa 1592E; details: Muller-Hinton agar, 37° C., 18 hours, read-out: MIC
Procedure, shortened: as §1

Escherichia coli DC2 = details: Escherichia coli, DC2, 18 h
Procedure, shortened: as §1

[2] = tested on: Staphylococcus aureus 285; details: Staphylococcus aureus, 285, 18 h, Staphylococcus aureus 285; Muller-Hinton agar, 37° C., 18 hours; read-out: MIC
Procedure, shortened: as §1

[3] = tested on: Streptococcus faecium MD8b; details: Enterococcus faecium, Muller-Hinton agar, 37° C., 18 hours, read-out: MIC
Procedure, shortened: as §1

[4] = tested on: Streptococcus pyogenes 77A
Procedure, shortened: as §1

[5] = tested on: Staphylococcus aureus SG511; details: Staphylococcus aureus SG511; Muller-Hinton agar, 37° C., 18 hours; read-out: MIC
Procedure, shortened: as §1

[6] = tested on: Enterobacter cloacae 1321E; details: Enterobacter cloacae 1321E; Muller-Hinton agar, 37° C., 18 hours; read-out: MIC
Procedure, shortened: as §1

[7] = tested on: Pseudomonas aeruginosa 1771
Procedure, shortened: as §1

[8] = tested on: Staphylococcus aureus 503; details: Staphylococcus aureus 503; Muller-Hinton agar, 37° C., 18 hours; read-out: MIC
Procedure, shortened: as §1

[9] = tested on: Pseudomonas aeruginosa 9027; details: Muller-Hinton agar, 37° C., 18 hours, read-out: MIC
Procedure, shortened: as §1

Escherichia coli 1507E = details: Muller-Hinton agar, 37° C.
Procedure, shortened: as §1

[10] = tested on: Streptococcus pyogenes 308A; details: Muller-Hinton agar, 37° C., 18 hours, read-out: MIC
Procedure, shortened: as §1

Klebsiella oxytoca 1082E = tested on: Klebsiella oxytoca 1082E
Procedure, shortened: as §1

Enterobacter cloacae P99 = details: Enterobacter cloacae, P99, 18 h
Procedure, shortened: (§2)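 Each strain, at 10^7 C.F.U./ml, was spotted onto Muller-Hinton agar carrying serial compound dilutions. Growth after an 18-hour incubation at 37° C. defined the minimum inhibitory concentration.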

Escherichia coli DC0 = details: Muller-Hinton agar, 37° C., 18 hours, read-out: MIC
Procedure, shortened: as §1

[11] = tested on: Klebsiella aerogenes 1522E; details: Klebsiella aerogenes, 1522E, 18 h, Klebsiella aerogenes 1522E; Muller-Hinton agar, 37° C., 18 hours; read-out: MIC
Procedure, shortened: as §1

[12] = tested on: Pseudomonas aeruginosa 1771M; details: Pseudomonas aeruginosa, 1771M, 18 h, Muller-Hinton agar, 37° C.
Procedure, shortened: as §1

Escherichia coli TEM = details: Escherichia coli, 18 h, Muller-Hinton agar, 37° C.
Procedure, shortened: as §2

[13] = Escherichia coli 078, Muller-Hinton agar, 37° C., 18 hours, read-out: MIC
[14] = Streptococcus pyogenes 77A, Muller-Hinton agar, 37° C., 18 hours, read-out: MIC
[15] = Pseudomonas aeruginosa 1771, Muller-Hinton agar, 37° C., 18 hours, read-out: MIC
[16] = Klebsiella oxytoca 1082E, Muller-Hinton agar, 37° C., 18 hours, read-out: MIC
[17] = Klebsiella oxytoca, 1082E, 18 h

SMILES | MIC (Salmonella typhimurium) [µg/mL] | MIC [1] [µg/mL] | MIC (Escherichia coli DC2) [µg/mL] | MIC [2] [µg/mL] | MIC [3] [µg/mL] | MIC [4, 14] [µg/mL] | MIC [5] [µg/mL] | MIC [6] [µg/mL] | MIC [7, 15] [µg/mL] | MIC [8] [µg/mL] | MIC [9] [µg/mL] | MIC [10] [µg/mL] | MIC (Klebsiella oxytoca 1082E; [16]) [µg/mL] | MIC (Enterobacter cloacae P99) [µg/mL] | MIC (Escherichia coli DC0) [µg/mL] | MIC [11] [µg/mL] | MIC [12] [µg/mL] | MIC (Escherichia coli TEM) [µg/mL] | MIC (Escherichia coli 1507E; Escherichia coli, 1507E, 18 h) [µg/mL] | MIC (Escherichia coli 078; Escherichia coli, 078, 18 h) [µg/mL] | other results
CNCC1=CCN(c2c(F)cc3c(=O)c(C(=O)CC#N)cn(C4CC4)c3c2Cl)C1 [Example 43, 1-cyclopropyl-6-fluoro-8-chloro-7-(3-methylaminomethyl-2,5-dihydropyrrol-1-yl)-3-(2-cyanoacetyl)-1,4-dihydro-4-oxoquinoline hydrochloride] | 0.195 | 12.5 | 1.56 | 3.12 | 12.5 | 25 | 3.12 | 0.049 | 3.12 | 0.195 | 6.25 | 25 | 0.098 | 0.391 | 3.12 | 0.781 | 1.56 | 1.56 |  |  | MIC (Escherichia coli 078; [13]): 6.25 µg/mL; MIC (Escherichia coli 1507E; 18 hours, read-out: MIC): 12.5 µg/mL
NC1CCN(c2c(F)cc3c(=O)c(C(=O)C[N+](=O)[O-])cn(C4CC4)c3c2Cl)C1 (stereo not drawn) [Example 11, 1-cyclopropyl-6-fluoro-8-chloro-7-(3-aminopyrrolidin-1-yl)-3-(2-nitroacetyl)-1,4-dihydro-4-oxoquinoline hydrochloride] | < 0.002 | 0.195 | 0.013 | 0.025 | 0.098 | 0.098 | 0.013 | < 0.002 | 0.098 | 0.025 | 0.195 | 0.195 | < 0.002 | < 0.002 | 0.049 | 0.007 | 0.025 | < 0.002 |  |  | MIC (Escherichia coli 078; [13]): < 0.002 µg/mL; MIC (Escherichia coli 1507E; 18 hours, read-out: MIC): < 0.002 µg/mL
CNC1CCN(c2c(F)cc3c(=O)c(C(=O)C[N+](=O)[O-])cn(C4CC4)c3c2Cl)C1 (stereo not drawn) [Example 63, 1-cyclopropyl-6-fluoro-8-chloro-7-(3-methylaminopyrrolidin-1-yl)-3-(2-nitroacetyl)-1,4-dihydro-4-oxoquinoline hydrochloride] | 0.004 | 0.195 | 0.025 | 0.049 | 0.098 | 0.098 | 0.025 | 0.013 | 0.195 | 0.049 | 0.391 | 0.391 | 0.007 | 0.013 | 0.098 | 0.013 | 0.049 | 0.007 | 0.007 |  | MIC (Escherichia coli 078; [13]): < 0.002 µg/mL
COc1c(N2CCC(N)C2)c(F)cc2c(=O)c(C(=O)C[N+](=O)[O-])cn(C3CC3)c12 (stereo not drawn) [Example 49, 1-cyclopropyl-6-fluoro-8-methoxy-7-(3-aminopyrrolidin-1-yl)-3-(2-nitroacetyl)-1,4-dihydro-4-oxoquinoline hydrochloride] | 0.049 | 1.56 | 0.098 | 0.098 | 0.195 | 0.098 | 0.098 | 0.025 | 3.12 | 0.098 | 3.12 | 0.391 | 0.013 | 0.049 | 0.391 | 0.098 | 0.781 | 0.049 | 0.098 | 0.049 | 
CCn1cc(C(=O)C[N+](=O)[O-])c(=O)c2cc(F)c(N3CCC(N)C3)c(F)c21 (stereo not drawn) [Example 30, 1-ethyl-6,8-difluoro-7-(3-aminopyrrolidin-1-yl)-3-(2-nitroacetyl)-1,4-dihydro-4-oxoquinoline hydrochloride] | 0.781 | 0.781 | 0.195 | 0.195 | 1.56 | 1.56 | 0.195 | 0.049 |  | 0.195 | 0.781 | 1.56 |  | 0.049 | 0.781 | 0.098 | 0.195 | 0.391 | 0.391 | 0.049 | MIC ([7]; Pseudomonas aeruginosa, 1771, 18 h): 0.391 µg/mL; MIC (Klebsiella oxytoca 1082E; [17]): 0.391 µg/mL
NC1CCN(c2c(F)cc3c(=O)c(C(=O)C[N+](=O)[O-])cn(CCF)c3c2F)C1 (stereo not drawn) [Example 31, 1-(2-fluoroethyl)-6,8-difluoro-7-(3-aminopyrrolidin-1-yl)-3-(2-nitroacetyl)-1,4-dihydro-4-oxoquinoline hydrochloride] | 0.391 | 0.781 | 0.391 | 0.391 | 0.781 | 1.56 | 0.781 | 0.049 | 0.781 | 0.391 | 0.781 | 3.12 |  | 0.098 | 0.195 | 0.098 | 0.391 | 0.195 |  | 0.391 | MIC (Escherichia coli 1507E; 18 hours, read-out: MIC): 0.198 µg/mL; MIC (Klebsiella oxytoca 1082E; [17]): 0.195 µg/mL
NC1CCN(c2nc3c(cc2F)c(=O)c(C(=O)C[N+](=O)[O-])cn3-c2ccc(F)cc2F)C1 (stereo not drawn) [Example 8, 1-(2,4-difluorophenyl)-6-fluoro-7-(3-aminopyrrolidin-1-yl)-3-(2-nitroacetyl)-1,4-dihydro-4-oxo-1,8-naphthyridinehydrochloride] | 0.007 | 0.195 | 0.013 | 0.025 | 0.391 | 0.195 | 0.049 | < 0.002 | 0.391 | 0.025 | 0.391 | 0.781 | < 0.002 | < 0.002 | 0.195 | 0.007 | 0.049 | < 0.002 | 0.007 | 0.007 | 
CCOC(=O)C(C(=O)OCC)C(=O)c1cn(C2CC2)c2c(OC)c(N3CCC(NC)C3)c(F)cc2c1=O (stereo not drawn) [Example 60, 1-cyclopropyl-6-fluoro-8-methoxy-7-(3-methylaminopyrrolidin-1-yl)-3-(2,2-diethoxycarbonylacetyl)-1,4-dihydro-4-oxoquinoline hydrochloride] | 0.098 | 1.56 | 0.098 | 0.195 | 0.781 |  | 0.195 | 0.098 | 1.56 | 0.098 | 1.56 | 1.56 | 0.013 | 0.098 | 0.781 | 0.195 | 0.781 | 0.098 | 0.195 | 0.098 | MIC ([4]; Streptococcus pyogenes, 77A, 18 h): 0.781 µg/mL
N#CC(C#N)C(=O)c1cn(C2CC2)c2c(Cl)c(N3CCC(N)C3)c(F)cc2c1=O (stereo not drawn) [Example 45, 1-cyclopropyl-6-fluoro-8-chloro-7-(3-aminopyrrolidin-1-yl)-3-(2,2-dicyanoacetyl)-1,4-dihydro-4-oxoquinoline hydrochloride] | 0.098 | 3.12 | 0.781 | 1.56 | 6.25 | 25 | 0.781 | 0.098 | 3.12 | 1.56 | 6.25 | 25 | 0.049 | 0.195 | 1.56 | 0.391 | 0.781 | 0.195 | 0.195 | 0.049 | 
